Activity calls are given as the source filed them.
Assays:
[1] = target: T1, Carboxy-terminal domain RNA polymerase II polypeptide A small phosphatase 1 (Homo sapiens, UniProt Q9GZU7); assay: inhibitors of CTDSP1, concentration-response testing, biochemical assay, absorbance-based, actives from ultra-high-throughput screening (AID 540297); format: functional
T1 sequence (Q9GZU7 whole entry): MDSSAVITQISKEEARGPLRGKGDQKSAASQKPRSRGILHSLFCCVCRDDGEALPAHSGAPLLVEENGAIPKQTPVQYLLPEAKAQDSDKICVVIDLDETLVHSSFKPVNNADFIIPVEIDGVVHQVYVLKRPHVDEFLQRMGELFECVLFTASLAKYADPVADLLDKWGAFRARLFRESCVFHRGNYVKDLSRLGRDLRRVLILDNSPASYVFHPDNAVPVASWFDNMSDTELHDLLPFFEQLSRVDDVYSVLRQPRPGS

[2] = target: T2, Heat shock factor protein 1 (Mus musculus, UniProt P38532); assay: HSF1 potentiators in luciferase reporter cells, confirmation, cell-based, NIH3T3, luminescence, dose retest (AID 435004); format: functional;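 further: stress induced by proteasome inhibitor MG132 added 30 min after compound; luciferase reporter driven by HSF1 response element in NIH3T3 cells; actives raise luminescence as potentiators of the MG132 stress response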
T2 sequence (P38532 whole entry): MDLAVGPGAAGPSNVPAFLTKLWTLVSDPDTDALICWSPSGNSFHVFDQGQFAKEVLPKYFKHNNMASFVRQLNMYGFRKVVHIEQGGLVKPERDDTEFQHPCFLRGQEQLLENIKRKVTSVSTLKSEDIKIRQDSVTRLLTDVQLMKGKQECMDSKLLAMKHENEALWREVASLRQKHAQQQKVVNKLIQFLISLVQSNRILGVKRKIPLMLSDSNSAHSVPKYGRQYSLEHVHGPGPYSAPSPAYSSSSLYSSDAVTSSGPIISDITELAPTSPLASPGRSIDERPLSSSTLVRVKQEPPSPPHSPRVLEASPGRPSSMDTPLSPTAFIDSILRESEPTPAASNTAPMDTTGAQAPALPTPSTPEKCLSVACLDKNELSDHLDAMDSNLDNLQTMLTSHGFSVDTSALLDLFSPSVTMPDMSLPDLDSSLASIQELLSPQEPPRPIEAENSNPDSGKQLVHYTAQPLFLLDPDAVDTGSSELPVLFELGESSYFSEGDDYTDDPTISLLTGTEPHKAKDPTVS

[3] = target: Cytochrome P450 2D6 (Homo sapiens, UniProt P10635);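 further: CYP2D6 member of a cytochrome P450 panel assay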
Cytochrome P450 2D6, sequence (P10635 whole entry): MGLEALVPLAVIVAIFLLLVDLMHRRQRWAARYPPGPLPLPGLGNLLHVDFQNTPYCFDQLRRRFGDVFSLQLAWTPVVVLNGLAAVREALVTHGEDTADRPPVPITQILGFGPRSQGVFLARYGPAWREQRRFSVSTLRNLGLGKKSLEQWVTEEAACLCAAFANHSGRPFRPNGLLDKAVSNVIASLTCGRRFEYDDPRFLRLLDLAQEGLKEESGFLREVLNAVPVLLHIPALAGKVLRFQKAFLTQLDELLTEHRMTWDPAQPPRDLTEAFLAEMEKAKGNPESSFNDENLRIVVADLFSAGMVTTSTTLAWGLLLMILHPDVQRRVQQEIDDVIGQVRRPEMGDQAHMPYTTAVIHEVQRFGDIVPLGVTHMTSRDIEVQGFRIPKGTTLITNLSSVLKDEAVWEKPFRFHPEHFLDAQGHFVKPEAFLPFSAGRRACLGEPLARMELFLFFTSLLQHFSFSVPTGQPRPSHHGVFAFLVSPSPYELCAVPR

[4] = growth suppression of PTEN-null colon cells, dose response, cell-based, HCT116 PTEN knockout (AID 1047); format: functional;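 further: HCT116 colon tumor cells with PTEN knocked out; cells exposed to compound for 60 hours before readout; potency for loss of cell viability measured by luminescence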
[5] = growth suppression of beta-catenin-knockout colon cells, dose response, cell-based, HCT116, human colon tumor (AID 1045); format: functional;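 further: HCT116 colon tumor cells with beta catenin knocked out; cells exposed to compound for 60 hours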
[6] = Luminescence Cell-Based Dose Retest to Confirm Inhibitors of Cancer Stem Cells. [Related pubchem assays (depositor defined):AID2717, AID2721]; format: functional; conditions: Homo sapiens
[7] = target: T3, Bcl-2-related protein A1 (Mus musculus, UniProt Q07440); format: functional;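 further: confirmatory dose–response counterscreen on Bfl-1, used to check hits from a UBC13 polyubiquitin inhibitor campaign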
T3 sequence (Q07440 whole entry): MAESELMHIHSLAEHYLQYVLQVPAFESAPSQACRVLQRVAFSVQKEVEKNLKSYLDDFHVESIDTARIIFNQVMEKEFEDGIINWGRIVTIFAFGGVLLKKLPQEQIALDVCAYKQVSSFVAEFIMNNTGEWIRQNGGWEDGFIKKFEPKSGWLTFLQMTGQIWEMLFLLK

[8] = target: T4, Ubiquitin-conjugating enzyme E2 N (Homo sapiens, UniProt P61088); format: functional
T4 sequence (P61088 whole entry): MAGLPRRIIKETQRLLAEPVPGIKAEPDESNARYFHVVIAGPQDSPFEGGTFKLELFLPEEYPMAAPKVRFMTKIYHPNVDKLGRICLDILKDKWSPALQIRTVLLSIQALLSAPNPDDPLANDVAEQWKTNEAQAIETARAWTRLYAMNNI

[9] = target: T4, Ubiquitin-conjugating enzyme E2 N; format: functional; remark: listed apart in the source
[10] = tested on: BJ; assay: cytotoxicity toward BJ-TERT fibroblasts, dose response, cell-based, RAS-independent, luminescence (AID 1933); format: functional; conditions: Homo sapiens
[11] = tested on: BJ; assay: cells; format: functional, cell-based; conditions: Homo sapiens
[12] = tested on: BJ; assay: cytotoxicity toward BJ-TERT-LT-ST fibroblasts, dose response, cell-based, RAS-independent, luminescence (AID 1935); format: functional; conditions: Homo sapiens;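 further: BJ fibroblasts immortalized with TERT plus LT and ST oncogenes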
[13] = cytotoxicity toward DRD oncogenic fibroblasts, dose response, cell-based, non-viral oncogenic, luminescence (AID 1934); format: functional; conditions: Homo sapiens
[14] = target: T5, Replicative DNA helicase DnaB (Mycobacterium tuberculosis, UniProt P9WMR3); assay: DnaB intein splicing inhibitors, dose response, biochemical, cell-free fluorescence (AID 449749); format: functional
T5 sequence (P9WMR3 whole entry): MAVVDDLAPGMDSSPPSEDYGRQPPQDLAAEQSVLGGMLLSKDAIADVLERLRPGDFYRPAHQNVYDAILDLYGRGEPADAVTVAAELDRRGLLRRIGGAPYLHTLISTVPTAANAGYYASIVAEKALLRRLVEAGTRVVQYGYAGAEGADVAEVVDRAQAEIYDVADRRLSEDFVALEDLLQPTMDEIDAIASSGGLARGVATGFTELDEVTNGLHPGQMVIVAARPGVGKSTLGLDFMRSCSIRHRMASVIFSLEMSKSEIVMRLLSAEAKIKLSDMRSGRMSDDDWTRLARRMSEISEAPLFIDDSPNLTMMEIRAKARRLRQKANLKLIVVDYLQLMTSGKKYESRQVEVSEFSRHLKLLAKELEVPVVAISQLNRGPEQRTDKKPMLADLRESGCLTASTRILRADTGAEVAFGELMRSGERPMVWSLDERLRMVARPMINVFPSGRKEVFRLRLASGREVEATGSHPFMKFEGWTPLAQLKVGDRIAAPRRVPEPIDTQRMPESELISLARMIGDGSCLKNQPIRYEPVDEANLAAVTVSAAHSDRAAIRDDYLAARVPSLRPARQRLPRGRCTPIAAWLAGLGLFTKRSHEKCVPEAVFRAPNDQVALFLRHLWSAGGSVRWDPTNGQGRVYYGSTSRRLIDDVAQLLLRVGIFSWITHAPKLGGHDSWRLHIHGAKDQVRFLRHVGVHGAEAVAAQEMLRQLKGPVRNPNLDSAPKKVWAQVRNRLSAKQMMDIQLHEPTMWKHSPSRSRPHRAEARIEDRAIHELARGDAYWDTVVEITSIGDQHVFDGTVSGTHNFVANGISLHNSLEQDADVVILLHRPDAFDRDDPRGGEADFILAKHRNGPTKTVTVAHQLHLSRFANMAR

[15] = target: T6, Protein RecA (Mycobacterium tuberculosis, UniProt P9WHJ3); assay: Fluorescence Cell-Free Homogeneous Dose Retest to Identify Inhibitors of RecA-Intein Splicing Activity. [Related pubchem assays (depositor defined):AID2097, AID2223, AID489010, AID492950]; format: functional
T6 sequence (P9WHJ3 whole entry): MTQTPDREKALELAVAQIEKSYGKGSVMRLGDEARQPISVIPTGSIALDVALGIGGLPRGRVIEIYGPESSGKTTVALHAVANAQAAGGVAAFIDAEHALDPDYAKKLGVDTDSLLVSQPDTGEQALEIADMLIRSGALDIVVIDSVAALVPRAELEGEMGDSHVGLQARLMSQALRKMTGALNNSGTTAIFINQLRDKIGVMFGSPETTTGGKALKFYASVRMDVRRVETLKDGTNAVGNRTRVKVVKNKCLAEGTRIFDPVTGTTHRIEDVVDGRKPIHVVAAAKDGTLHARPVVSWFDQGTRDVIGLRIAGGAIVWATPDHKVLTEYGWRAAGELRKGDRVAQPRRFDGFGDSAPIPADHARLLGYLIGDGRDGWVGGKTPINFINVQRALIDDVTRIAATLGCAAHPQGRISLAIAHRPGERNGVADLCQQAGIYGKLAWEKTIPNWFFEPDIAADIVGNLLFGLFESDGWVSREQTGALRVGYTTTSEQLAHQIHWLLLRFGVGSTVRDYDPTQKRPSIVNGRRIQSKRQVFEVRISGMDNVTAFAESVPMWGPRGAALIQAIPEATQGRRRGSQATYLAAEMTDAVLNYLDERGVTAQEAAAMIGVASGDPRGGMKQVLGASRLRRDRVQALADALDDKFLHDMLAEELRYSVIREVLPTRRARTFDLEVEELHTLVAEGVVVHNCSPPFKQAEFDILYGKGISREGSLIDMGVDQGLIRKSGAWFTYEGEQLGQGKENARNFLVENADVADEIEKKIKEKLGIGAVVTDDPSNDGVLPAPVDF

[16] = Luminescence Cell-Based Dose Confirmation HTS to Identify Activators of 5'UTR Stem-Loop Driven Alpha-Synuclein mRNA Translation in H4 Neuroglioblastoma Cells. [Related pubchem assays: 1829 (Project Summary), 1814 (Primary HTS)]; format: functional
[17] = Luminescence Cell-Based Dose Response HTS to Identify Activators of Luciferase Translation or Activity in H4 […] Cells. [Related pubchem assays: 1829 (Project Summary), 1814 (Primary HTS)]; format: functional
[18] = tested on: H4; assay: Luminescence Cell-Based Dose Response HTS to Identify Activators of 5'UTR Stem-Loop Driven Prion Protein mRNA Translation in H4 Neuroglioblastoma Cells. [Related pubchem assays: 1829 (Project Summary), 1814 (Primary HTS)]; format: functional; conditions: Homo sapiens
[19] = P. falciparum Dd2 growth inhibitors, dose response, SYBR Green, cherry-picked samples (AID 1159567); format: functional, cell-based

CCCc1n(CC(O)COC2CCCCC2)c2ccccc2[n+]1C (stereo unspecified)
IC50 [1]: 14.3 µM (active)

Nc1nc(Br)c2c(F)cccc2c1-c1ccc(Cl)cc1
EC50 [2]: > 260 µM (inactive)
AC50 [3]: 3.16 µM (inconclusive)

O=C1c2cccc3cccc(c23)C(=O)N1CCN1CCN(CC(O)COc2ccc3ccccc3c2)CC1 (stereo unspecified)
EC50 [4]: 12 µM (active)
EC50 [5]: 9.47 µM (active)
AC50 [6]: 5.08 µM (active)
IC50 [7]: > 20 µM (inactive)
IC50 [8]: 2.49 µM (active)
IC50 [9]: 3.02 µM (active)

CC(O)/C=C/c1cccc[n+]1C (stereo unspecified)
IC50 [1]: 12.2 µM (active)

Cn1c(SCC(=O)NC(=O)NCc2ccco2)nnc1-c1ccccc1
IC50 [1]: 6.39 µM (active)

CCC1=Nc2cc(C(=O)O)ccc2Sc2ccc(Cl)cc21
EC50 [10]: > 150 µM (not active)
EC50 [11]: > 150 µM (not active)
EC50 [12]: > 150 µM (not active)
EC50 [13]: > 150 µM (not active)

CC(C)Oc1cccc(C(=O)C2CCCN(C(=O)c3csnn3)C2)c1 (stereo unspecified)
AC50 [14]: > 380 µM (inactive)
EC50 [15]: > 380 µM (inactive)

COc1cc(NC(=O)Cc2cccs2)ccc1-n1cnnn1
EC50 [2]: > 260 µM (inactive)

Cc1ccc(NC(=O)c2cnc(SCC(=O)NCC3CCCO3)n(C)c2=O)cc1 (stereo unspecified)
AC50 [14]: 10.1 µM (active)
EC50 [15]: 30.9 µM (active)

O=C(COc1ccc(-n2cnnn2)cc1)Nc1cccc(Cl)c1Cl
IC50 [1]: 6.36 µM (active)

Cc1nn(-c2ccccc2)c2c1C(c1ccco1)C(C#N)=C(N)O2 (stereo unspecified)
AC50 [14]: 5.88 µM (active)
EC50 [15]: 4.03 µM (active)

Cc1cc(C)c2nc3sc(C(=O)N4CCOCC4)c(N)c3cc2c1
EC50 [10]: 2.52 µM (active)
EC50 [11]: 2.64 µM (active)
EC50 [12]: 26 µM (active)
EC50 [13]: 2.62 µM (active)

CC1CCC(NC(=O)Cn2c(=O)oc3cc(S(=O)(=O)N4CCCC4)ccc32)CC1 (stereo unspecified)
IC50 [1]: 25.5 µM (active)

CCOC(=O)CSCC(=O)N1N=C(c2cccs2)CC1c1ccc(F)cc1 (stereo unspecified)
AC50 [14]: 17.7 µM (active)
EC50 [15]: 15.1 µM (active)

Cc1ccc(-n2nc(C)c3c2OC(N)=C(C#N)C3c2ccc(F)cc2)cc1 (stereo unspecified)
EC50 [16]: > 120 µM (not active)
EC50 [17]: > 120 µM (not active)
EC50 [18]: > 120 µM (not active)
AC50 [14]: 14.2 µM (active)
EC50 [15]: 6.09 µM (active)

Fc1ccc(NC(S)=Nc2cc(Cl)ccc2Cl)cc1
EC50 [2]: > 260 µM (inactive)

COc1ccc(C(=O)C2C(c3ccc(-c4ccccc4[N+](=O)[O-])o3)NC(=O)NC2(O)C(F)(F)F)cc1 (stereo unspecified)
AC50 [14]: 14.6 µM (active)
EC50 [15]: 21.5 µM (active)

S=C(Nc1ccccc1)Nc1ccc(Cl)cn1
EC50 [2]: > 260 µM (inactive)

Clc1ccc(SCc2csc(N3CCOCC3)n2)cc1
EC50 [2]: 51.8 µM (active)

CCCn1c(SCC(=O)c2cc(OC)ccc2OC)nnc1C(C)C
EC50 [2]: 62.4 µM (active)

C/C(CC(=O)Nc1cccnc1)=N\NC(=O)c1ccc([N+](=O)[O-])c(Cl)c1
AC50 [14]: 20.4 µM (active)
EC50 [15]: 4.18 µM (active)

CCOc1cc(/C=N/NC(=O)CSc2nnc(C)s2)ccc1OCc1ccccc1Cl
IC50 [1]: 10.1 µM (active)

O=C(N/N=C/c1ccc(OC(=O)c2cccs2)cc1)c1ccc(F)cc1
IC50 [1]: > 80 µM (inactive)

COc1ccc(NC(=O)N(C)C[C@H]2Oc3ccc(NC(=O)Nc4ccc(C(F)(F)F)cc4)cc3CC(=O)N([C@H](C)CO)C[C@@H]2C)cc1
AC50 [19]: 3.41 µM (active)

CCCN1C[C@@H](C)[C@H](OC)CN(C)C(=O)c2ccc(NC(=O)c3ccc4c(c3)OCO4)cc2OC[C@H]1C
AC50 [19]: 3.45 µM (active)

c1ccc(CN2C[C@@H]3N[C@H](C2)[C@H]3c2ccc(-c3ccncc3)cc2)cc1
AC50 [19]: 9.92 µM (active)

O=C(c1ccc(F)cc1)N1CC(=O)N2[C@H](CO)[C@@H](c3ccc(C#Cc4ccc(F)cc4)cc3)[C@@H]2C1
AC50 [19]: 5.03 µM (active)

C/C=C/c1ccc2c(c1)[C@@H]1[C@@H](CCN1C(=O)C1CCCC1)[C@H](CO)N2
AC50 [19]: 12.7 µM (active)

COc1ccc2c3c([nH]c2c1)[C@H](CO)N(C(=O)Nc1ccc(F)cc1)CC31CCN(C(=O)c2ccccn2)CC1
AC50 [19]: 12.4 µM (active)

— ChEMBL document CHEMBL1201862, “PubChem BioAssay data set” (2004)
